Laboratory results taken from patent publication US20260284018A1, “DUAL INHIBITORS OF DYRK1A AND 5-HT2 FOR TREATING A BRAIN DISORDER” (THE REGENTS OF THE UNIVERSITY OF CALIFORNIA, priority 2023, published 2026).

What was measured:
[1] = target: T1, ABL1(E255K)-phosphorylated (Homo sapiens, UniProt P00519, E255K); conditions: 10 μM; cited from earlier work
T1 construct: purchased Eurofins DiscoverX

AXL [2] = target: T2, AXL (Homo sapiens, UniProt P30530); conditions: 10 μM; cited from earlier work
T2 construct: purchased Eurofins DiscoverX
T2 sequence (P30530 26-894): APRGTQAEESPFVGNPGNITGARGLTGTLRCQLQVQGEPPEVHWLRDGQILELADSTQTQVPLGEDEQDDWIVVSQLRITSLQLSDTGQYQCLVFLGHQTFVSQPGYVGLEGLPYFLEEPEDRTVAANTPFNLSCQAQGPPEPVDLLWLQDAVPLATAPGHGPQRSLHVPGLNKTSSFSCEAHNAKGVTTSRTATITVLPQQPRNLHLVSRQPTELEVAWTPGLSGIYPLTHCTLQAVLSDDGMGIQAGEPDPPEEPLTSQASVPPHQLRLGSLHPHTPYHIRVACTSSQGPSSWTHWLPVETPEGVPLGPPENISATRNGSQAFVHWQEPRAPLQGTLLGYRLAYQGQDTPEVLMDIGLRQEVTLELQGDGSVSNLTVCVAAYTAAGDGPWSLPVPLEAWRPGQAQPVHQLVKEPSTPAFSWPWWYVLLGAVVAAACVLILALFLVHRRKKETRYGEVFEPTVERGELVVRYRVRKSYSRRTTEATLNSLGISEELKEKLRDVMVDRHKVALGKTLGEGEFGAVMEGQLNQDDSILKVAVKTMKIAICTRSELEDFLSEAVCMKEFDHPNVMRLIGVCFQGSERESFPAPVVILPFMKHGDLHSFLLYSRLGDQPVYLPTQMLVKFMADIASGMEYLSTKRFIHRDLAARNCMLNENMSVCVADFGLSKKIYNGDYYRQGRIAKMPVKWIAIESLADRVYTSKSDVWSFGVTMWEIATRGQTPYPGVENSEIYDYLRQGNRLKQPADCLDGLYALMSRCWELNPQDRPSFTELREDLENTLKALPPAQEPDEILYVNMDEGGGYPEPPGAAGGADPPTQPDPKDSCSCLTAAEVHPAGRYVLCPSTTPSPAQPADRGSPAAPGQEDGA

BRAF [3] = target: T3, BRAF (Homo sapiens, UniProt P15056); conditions: 10 μM; cited from earlier work
T3 construct: purchased Eurofins DiscoverX
T3 sequence (P15056 whole entry): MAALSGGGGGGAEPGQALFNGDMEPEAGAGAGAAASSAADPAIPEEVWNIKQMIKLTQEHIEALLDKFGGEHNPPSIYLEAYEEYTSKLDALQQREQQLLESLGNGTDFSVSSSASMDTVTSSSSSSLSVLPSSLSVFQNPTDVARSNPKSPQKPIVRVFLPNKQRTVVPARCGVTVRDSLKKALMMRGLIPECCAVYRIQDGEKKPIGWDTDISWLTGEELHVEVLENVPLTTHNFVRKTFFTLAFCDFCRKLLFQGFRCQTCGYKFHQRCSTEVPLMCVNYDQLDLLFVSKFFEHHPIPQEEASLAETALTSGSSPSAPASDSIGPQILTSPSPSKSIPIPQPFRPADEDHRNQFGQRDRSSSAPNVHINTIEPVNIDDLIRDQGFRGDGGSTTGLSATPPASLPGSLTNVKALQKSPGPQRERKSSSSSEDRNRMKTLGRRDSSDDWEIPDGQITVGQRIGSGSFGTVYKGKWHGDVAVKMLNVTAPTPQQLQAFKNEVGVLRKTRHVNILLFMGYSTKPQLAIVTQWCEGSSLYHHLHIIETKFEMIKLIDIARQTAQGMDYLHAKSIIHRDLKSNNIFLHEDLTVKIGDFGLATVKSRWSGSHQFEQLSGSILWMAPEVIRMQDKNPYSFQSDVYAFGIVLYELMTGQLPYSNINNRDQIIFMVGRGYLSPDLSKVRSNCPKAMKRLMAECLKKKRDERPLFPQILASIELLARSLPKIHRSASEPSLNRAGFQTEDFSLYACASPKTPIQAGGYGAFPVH

CDK9 = target: T4, CDK9 (Homo sapiens, UniProt P50750); conditions: 10 μM; cited from earlier work
T4 construct: purchased Eurofins DiscoverX

DCAMKL1 = target: T5, DCAMKL1 (Homo sapiens, UniProt O15075); conditions: 10 μM; cited from earlier work
T5 construct: purchased Eurofins DiscoverX
T5 sequence (O15075 whole entry): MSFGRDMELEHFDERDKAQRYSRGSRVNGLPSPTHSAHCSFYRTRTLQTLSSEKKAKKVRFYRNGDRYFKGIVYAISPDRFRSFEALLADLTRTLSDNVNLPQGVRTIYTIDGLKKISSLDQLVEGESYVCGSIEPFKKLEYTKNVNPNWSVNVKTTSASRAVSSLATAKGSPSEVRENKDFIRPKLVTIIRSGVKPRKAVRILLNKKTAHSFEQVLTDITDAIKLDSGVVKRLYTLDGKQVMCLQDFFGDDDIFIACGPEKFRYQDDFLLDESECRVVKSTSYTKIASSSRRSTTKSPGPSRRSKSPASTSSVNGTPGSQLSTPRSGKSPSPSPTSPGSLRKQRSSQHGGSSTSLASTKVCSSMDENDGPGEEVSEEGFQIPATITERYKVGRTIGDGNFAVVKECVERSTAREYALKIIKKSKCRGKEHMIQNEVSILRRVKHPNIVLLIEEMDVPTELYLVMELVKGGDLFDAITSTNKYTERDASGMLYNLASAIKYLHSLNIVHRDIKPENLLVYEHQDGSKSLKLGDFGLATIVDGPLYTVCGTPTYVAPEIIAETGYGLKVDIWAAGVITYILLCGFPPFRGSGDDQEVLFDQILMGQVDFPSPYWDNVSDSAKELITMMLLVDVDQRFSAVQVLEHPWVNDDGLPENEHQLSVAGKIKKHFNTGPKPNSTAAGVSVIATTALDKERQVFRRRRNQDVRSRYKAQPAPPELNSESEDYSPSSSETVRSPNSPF

FGFR2 = target: T6, FGFR2 (Homo sapiens, UniProt P21802); conditions: 10 μM; cited from earlier work
T6 construct: purchased Eurofins DiscoverX

INSR = target: T7, INSR (Homo sapiens, UniProt P06213); conditions: 10 μM; cited from earlier work
T7 construct: purchased Eurofins DiscoverX

[4] = target: T8, JAK2(JH1domain-catalytic) (Homo sapiens, UniProt O60674); conditions: 10 μM; cited from earlier work
T8 construct: JAK2(JH1domain-catalytic); purchased Eurofins DiscoverX

LKB1 = target: T9, LKB1 (Homo sapiens, UniProt Q15831); conditions: 10 μM; cited from earlier work
T9 construct: purchased Eurofins DiscoverX (KINOMEscan scanEDGE service)

MEK1 [5] = target: T10, MEK1 (Homo sapiens, UniProt Q02750); conditions: 10 μM; cited from earlier work
T10 construct: purchased Eurofins DiscoverX (KINOMEscan scanEDGE service)
T10 sequence (Q02750 whole entry): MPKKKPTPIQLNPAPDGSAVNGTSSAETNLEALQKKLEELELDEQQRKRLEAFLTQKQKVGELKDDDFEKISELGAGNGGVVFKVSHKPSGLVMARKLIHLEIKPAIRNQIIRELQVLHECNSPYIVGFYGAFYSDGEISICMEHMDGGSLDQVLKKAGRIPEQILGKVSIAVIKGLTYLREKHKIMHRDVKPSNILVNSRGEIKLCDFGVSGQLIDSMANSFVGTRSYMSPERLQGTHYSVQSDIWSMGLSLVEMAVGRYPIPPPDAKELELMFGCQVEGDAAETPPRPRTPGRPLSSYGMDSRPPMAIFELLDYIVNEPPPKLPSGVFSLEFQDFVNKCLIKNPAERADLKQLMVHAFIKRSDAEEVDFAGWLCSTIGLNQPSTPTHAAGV

MEK2 = target: T11, MEK2 (Homo sapiens, UniProt P36507); conditions: 10 μM; cited from earlier work
T11 construct: purchased Eurofins DiscoverX (KINOMEscan scanEDGE service)

PIM1 = target: T12, PIM1 (Homo sapiens, UniProt P11309); conditions: 10 μM; cited from earlier work
T12 construct: purchased Eurofins DiscoverX (KINOMEscan scanEDGE service)

PKAC-alpha = target: T13, PKAC-alpha (Homo sapiens, UniProt P17612); conditions: 10 μM; cited from earlier work
T13 construct: purchased Eurofins DiscoverX KINOMEscan scanEDGE

[6] = target: T14, RSK2(Kin.Dom.1-N-terminal) (Homo sapiens, UniProt P51812); conditions: 10 μM; cited from earlier work
T14 construct: RSK2(Kin.Dom.1-N-terminal); purchased Eurofins DiscoverX KINOMEscan scanEDGE

SRC [7] = target: T15, SRC (Homo sapiens, UniProt P12931); conditions: 10 μM; cited from earlier work
T15 construct: purchased Eurofins DiscoverX KINOMEscan scanEDGE
T15 sequence (P12931 whole entry): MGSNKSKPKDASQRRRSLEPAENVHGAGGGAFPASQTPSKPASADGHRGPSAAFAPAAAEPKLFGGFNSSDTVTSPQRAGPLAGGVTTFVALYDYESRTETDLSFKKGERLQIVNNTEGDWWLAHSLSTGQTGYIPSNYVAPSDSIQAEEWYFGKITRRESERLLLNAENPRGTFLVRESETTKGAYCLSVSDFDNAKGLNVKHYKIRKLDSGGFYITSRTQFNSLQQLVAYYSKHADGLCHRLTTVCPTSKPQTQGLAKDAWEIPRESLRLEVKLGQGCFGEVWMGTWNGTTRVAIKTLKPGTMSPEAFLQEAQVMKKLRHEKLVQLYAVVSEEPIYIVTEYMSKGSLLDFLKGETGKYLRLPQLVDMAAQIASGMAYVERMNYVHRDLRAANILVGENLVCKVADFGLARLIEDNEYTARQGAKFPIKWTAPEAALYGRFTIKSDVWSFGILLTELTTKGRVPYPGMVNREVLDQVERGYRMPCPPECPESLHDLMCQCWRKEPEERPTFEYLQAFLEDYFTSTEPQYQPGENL

TGFBR1 = target: T16, TGFBR1 (Homo sapiens, UniProt P36897); conditions: 10 μM; cited from earlier work
T16 construct: purchased Eurofins DiscoverX KINOMEscan scanEDGE

[8] = target: T17, TYK2(JH1domain-catalytic) (Homo sapiens, UniProt P29597); conditions: 10 μM; cited from earlier work
T17 construct: TYK2(JH1domain-catalytic); purchased Eurofins DiscoverX KINOMEscan scanEDGE

[9] = target: T1, ABL1(E255K)-phosphorylated; assay: KINOMEscan scanEDGE; type: binding; conditions: read-out: Percent Control
Protocol: (§1) Kinome Scan. Compound HTW_A_8 fumarate was screened against 97 kinases at a single concentration of 10 μM at Eurofins DiscoverX using their KINOMEscan™ scanEDGE assay. The results are reported as the % activity relative to DMSO control, where lower values indicate higher affinity. See Table 1 for the full kinome profile.

ABL1-phosphorylated = target: T18, ABL1-phosphorylated (Homo sapiens, UniProt P00519); assay: KINOMEscan scanEDGE; type: binding; conditions: read-out: Percent Control
T18 construct: purchased Eurofins DiscoverX
Protocol: as §1

AKT1 = target: T19, AKT1 (Homo sapiens, UniProt P31749); assay: KINOMEscan scanEDGE; type: binding; conditions: read-out: Percent Control
T19 construct: purchased Eurofins DiscoverX
Protocol: as §1

AKT2 = target: T20, AKT2 (Homo sapiens, UniProt P31751); assay: KINOMEscan scanEDGE; type: binding; conditions: read-out: Percent Control
T20 construct: purchased Eurofins DiscoverX
Protocol: as §1

AXL [10] = target: T2, AXL; assay: KINOMEscan scanEDGE; type: binding; conditions: read-out: Percent Control
Protocol: as §1

BRAF [11] = target: T3, BRAF; assay: KINOMEscan scanEDGE; type: binding; conditions: read-out: Percent Control
Protocol: as §1

CSNK1D = target: T21, CSNK1D (Homo sapiens, UniProt P48730); assay: KINOMEscan scanEDGE; type: binding; conditions: read-out: Percent Control
T21 construct: purchased Eurofins DiscoverX
Protocol: as §1

DYRK1B = target: T22, DYRK1B (Homo sapiens, UniProt Q9Y463); assay: KINOMEscan scanEDGE; type: binding; conditions: read-out: Percent Control
T22 construct: purchased Eurofins DiscoverX
T22 sequence (Q9Y463 whole entry): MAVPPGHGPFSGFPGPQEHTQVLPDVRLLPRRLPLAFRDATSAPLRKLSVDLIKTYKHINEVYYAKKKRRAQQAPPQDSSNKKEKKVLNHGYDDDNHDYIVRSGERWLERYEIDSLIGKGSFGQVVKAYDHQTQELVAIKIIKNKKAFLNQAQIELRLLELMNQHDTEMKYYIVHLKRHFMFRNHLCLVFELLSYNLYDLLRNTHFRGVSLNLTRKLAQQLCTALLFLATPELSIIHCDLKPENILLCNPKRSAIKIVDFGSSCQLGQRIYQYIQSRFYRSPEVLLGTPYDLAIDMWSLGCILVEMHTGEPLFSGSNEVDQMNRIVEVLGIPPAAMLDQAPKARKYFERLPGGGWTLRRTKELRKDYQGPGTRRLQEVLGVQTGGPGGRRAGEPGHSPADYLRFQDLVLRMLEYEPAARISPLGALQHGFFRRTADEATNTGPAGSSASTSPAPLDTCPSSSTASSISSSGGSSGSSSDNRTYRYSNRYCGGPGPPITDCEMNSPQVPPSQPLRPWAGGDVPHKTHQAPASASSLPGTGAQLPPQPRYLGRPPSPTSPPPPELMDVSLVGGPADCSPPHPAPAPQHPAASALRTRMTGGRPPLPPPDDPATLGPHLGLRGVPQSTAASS
Protocol: as §1

EPHA2 = target: T23, EPHA2 (Homo sapiens, UniProt P29317); assay: KINOMEscan scanEDGE; type: binding; conditions: read-out: Percent Control
T23 construct: purchased Eurofins DiscoverX
Protocol: as §1

FGFR3 = target: T24, FGFR3 (Homo sapiens, UniProt P22607); assay: KINOMEscan scanEDGE; type: binding; conditions: read-out: Percent Control
T24 construct: purchased Eurofins DiscoverX
Protocol: as §1

KIT = target: T25, KIT (Homo sapiens, UniProt P10721); assay: KINOMEscan scanEDGE; type: binding; conditions: read-out: Percent Control
T25 construct: purchased Eurofins DiscoverX
Protocol: as §1

KIT(D816V) = target: T26, KIT(D816V) (Homo sapiens, UniProt P10721, D816V); assay: KINOMEscan scanEDGE; type: binding; conditions: read-out: Percent Control
T26 construct: purchased Eurofins DiscoverX
Protocol: as §1

MAP3K4 = target: T27, MAP3K4 (Homo sapiens, UniProt Q9Y6R4); assay: KINOMEscan scanEDGE; type: binding; conditions: read-out: Percent Control
T27 construct: purchased Eurofins DiscoverX (KINOMEscan scanEDGE service)
Protocol: as §1

MEK1 [12] = target: T10, MEK1; assay: KINOMEscan scanEDGE; type: binding; conditions: read-out: Percent Control
Protocol: as §1

PAK1 = target: T28, PAK1 (Homo sapiens, UniProt Q13153); assay: KINOMEscan scanEDGE; type: binding; conditions: read-out: Percent Control
T28 construct: purchased Eurofins DiscoverX (KINOMEscan scanEDGE service)
Protocol: as §1

PAK4 = target: T29, PAK4 (Homo sapiens, UniProt O96013); assay: KINOMEscan scanEDGE; type: binding; conditions: read-out: Percent Control
T29 construct: purchased Eurofins DiscoverX (KINOMEscan scanEDGE service)
Protocol: as §1

PCTK1 = target: T30, PCTK1 (Homo sapiens, UniProt Q00536); assay: KINOMEscan scanEDGE; type: binding; conditions: read-out: Percent Control
T30 construct: purchased Eurofins DiscoverX (KINOMEscan scanEDGE service)
Protocol: as §1

PIK3C2B = target: T31, PIK3C2B (Homo sapiens, UniProt O00750); assay: KINOMEscan scanEDGE; type: binding; conditions: read-out: Percent Control
T31 construct: purchased Eurofins DiscoverX (KINOMEscan scanEDGE service)
Protocol: as §1

SRC [13] = target: T15, SRC; assay: KINOMEscan scanEDGE; type: binding; conditions: read-out: Percent Control
Protocol: as §1

YANK3 = target: T32, YANK3 (Homo sapiens, UniProt Q86UX6); assay: KINOMEscan scanEDGE; type: binding; conditions: read-out: Percent Control
T32 construct: purchased Eurofins DiscoverX KINOMEscan scanEDGE
Protocol: as §1

T1 sequence (P00519 whole entry E255K): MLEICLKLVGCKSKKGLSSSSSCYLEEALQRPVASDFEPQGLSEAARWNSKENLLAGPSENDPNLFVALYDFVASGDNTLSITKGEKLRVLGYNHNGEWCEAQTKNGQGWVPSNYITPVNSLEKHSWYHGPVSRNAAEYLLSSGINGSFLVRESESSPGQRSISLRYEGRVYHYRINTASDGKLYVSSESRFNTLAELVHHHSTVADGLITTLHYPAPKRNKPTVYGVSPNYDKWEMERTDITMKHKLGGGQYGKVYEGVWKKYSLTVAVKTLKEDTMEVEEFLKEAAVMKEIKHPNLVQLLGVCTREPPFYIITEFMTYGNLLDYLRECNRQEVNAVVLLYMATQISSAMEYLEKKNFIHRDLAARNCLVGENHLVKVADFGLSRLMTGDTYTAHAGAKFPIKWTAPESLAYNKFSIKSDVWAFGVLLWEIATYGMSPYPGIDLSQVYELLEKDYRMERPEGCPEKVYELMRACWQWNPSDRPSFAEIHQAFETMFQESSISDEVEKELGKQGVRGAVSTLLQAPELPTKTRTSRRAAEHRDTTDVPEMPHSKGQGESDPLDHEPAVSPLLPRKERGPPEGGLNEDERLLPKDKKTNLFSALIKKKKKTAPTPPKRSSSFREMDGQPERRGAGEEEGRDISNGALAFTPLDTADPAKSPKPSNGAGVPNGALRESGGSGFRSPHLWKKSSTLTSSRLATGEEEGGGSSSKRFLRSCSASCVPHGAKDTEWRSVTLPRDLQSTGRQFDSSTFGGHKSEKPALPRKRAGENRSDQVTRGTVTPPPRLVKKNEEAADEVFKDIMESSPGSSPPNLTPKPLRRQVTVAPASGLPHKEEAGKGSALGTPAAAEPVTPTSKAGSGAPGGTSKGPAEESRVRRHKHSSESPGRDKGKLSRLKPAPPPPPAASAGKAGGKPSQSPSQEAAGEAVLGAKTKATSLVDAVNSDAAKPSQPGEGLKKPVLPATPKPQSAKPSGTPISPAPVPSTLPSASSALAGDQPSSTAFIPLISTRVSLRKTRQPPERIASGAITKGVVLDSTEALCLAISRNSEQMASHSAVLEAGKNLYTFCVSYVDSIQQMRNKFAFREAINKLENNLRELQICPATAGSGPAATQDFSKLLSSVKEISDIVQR

COc1ccc2c(c1)[nH]c1c(C)nccc12 [Harmine, harmine]
Percent Control [1]: 74% | Percent Control (AXL [2]): 82% | Percent Control (BRAF [3]): 100% | Percent Control (CDK9): 67% | Percent Control (DCAMKL1): 79% | Percent Control (FGFR2): 91% | Percent Control (INSR): 100% | Percent Control [4]: 92% | Percent Control (LKB1): 91% | Percent Control (MEK1 [5]): 79% | Percent Control (MEK2): 96% | Percent Control (PIM1): 45% | Percent Control (PKAC-alpha): 88% | Percent Control [6]: 72% | Percent Control (SRC [7]): 90% | Percent Control (TGFBR1): 91% | Percent Control [8]: 96%

COc1ccc2c3ccnc(C)c3n(CCN(C)C)c2c1.O=C(O)/C=C/C(=O)O [HTW_A_8 fumarate, 2-(7-methoxy-1-methyl-9H-pyrido[3,4-b]indol-9-yl)-N,N-dimethylethan-1-amine Fumarate Salt (2:3)]
remaining binding at 10 µM [9]: 79% | remaining binding at 10 µM (ABL1-phosphorylated): 81% | remaining binding at 10 µM (AKT1): 96% | remaining binding at 10 µM (AKT2): 100% | remaining binding at 10 µM (AXL [10]): 97% | remaining binding at 10 µM (BRAF [11]): 100% | remaining binding at 10 µM (CSNK1D): 88% | remaining binding at 10 µM (DYRK1B): 10% | remaining binding at 10 µM (EPHA2): 88% | remaining binding at 10 µM (FGFR3): 95% | remaining binding at 10 µM (KIT): 100% | remaining binding at 10 µM (KIT(D816V)): 100% | remaining binding at 10 µM (MAP3K4): 100% | remaining binding at 10 µM (MEK1 [12]): 87% | remaining binding at 10 µM (PAK1): 100% | remaining binding at 10 µM (PAK4): 100% | remaining binding at 10 µM (PCTK1): 96% | remaining binding at 10 µM (PIK3C2B): 100% | remaining binding at 10 µM (SRC [13]): 99% | remaining binding at 10 µM (YANK3): 94%
